The record followed here is ChEMBL document CHEMBL1126081, “Active conformation of a tumor promoter, teleocidin. A molecular dynamics study” (1992).

In the assay the test system is HL-60. Nature of the assay: Dose inducing HL-60 cell adhesion related to skin tumor promotion. It is filed as functional, Homo sapiens.
The compound `C[C@H]1C(=O)N[C@H](CO)Cc2c[nH]c3cccc(c23)N1C` (racemic) displayed an ED50 of 3.7e-06 M l-1. As for `CN1c2cccc3[nH]cc(c23)C[C@@H](CO)NC(=O)[C@@H]1C(C)(C)C` (racemic), the figure is 1.1e-07 M l-1. As for `CN1CC(=O)N[C@H](CO)Cc2c[nH]c3cccc1c23` (racemic), the figure is 3.9e-05 M l-1.
